Assay results published in patent US8846698B2, “Pyrrolo[2,3-d]pyrimidine tropomysin-related kinase inhibitors” (Pfizer Limited, priority 2011, dated 2014).

Biological target: TRKA (Homo sapiens (Human), UniProt P04629)
Test: Isolated TRK enzyme assay (HTRF KinEASE-TK), TRKA
Format: biochemical
Conditions: read-out: Trka enzyme (IC50)

Sequence of TRKA (P04629 441-796): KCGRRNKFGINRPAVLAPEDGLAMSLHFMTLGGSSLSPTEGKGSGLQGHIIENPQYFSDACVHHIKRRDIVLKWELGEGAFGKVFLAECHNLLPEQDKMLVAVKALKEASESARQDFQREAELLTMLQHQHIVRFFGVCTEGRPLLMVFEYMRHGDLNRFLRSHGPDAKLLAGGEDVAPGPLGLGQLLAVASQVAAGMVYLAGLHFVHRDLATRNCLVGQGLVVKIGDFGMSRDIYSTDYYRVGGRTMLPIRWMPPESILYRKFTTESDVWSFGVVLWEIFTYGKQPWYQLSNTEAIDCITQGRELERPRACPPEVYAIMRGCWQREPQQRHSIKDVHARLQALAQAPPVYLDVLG

| SMILES | IC50 |
| --- | --- |
| Cc1cc(C(=O)Nc2cncc(C(=O)c3cn(C(C)C)c4ncncc34)c2)n(C)n1 [Example 513, 2,5-Dimethyl-2H-pyrazole-3-carboxylic acid [5-(7-isopropyl-7H-pyrrolo[2,3-d]pyrimidine-5-carbonyl)-pyridin-3-yl]-amide] | 1890 nM |
| CC(C)n1cc(C(=O)c2cncc(NC(=O)c3ccnc4ncsc34)c2)c2cncnc21 [Example 514, Thiazolo[4,5-b]pyridine-7-carboxylic acid [5-(7-isopropyl-7H-pyrrolo[2,3-d]pyrimidine-5-carbonyl)-pyridin-3-yl]-amide] | 9800 nM |
| CC(C)n1cc(C(=O)c2cncc(NC(=O)c3cn4nc(Cl)ccc4n3)c2)c2cncnc21 [Example 515, 6-Chloro-imidazo[1,2-b]pyridazine-2-carboxylic acid [5-(7-isopropyl-7H-pyrrolo[2,3-d]pyrimidine-5-carbonyl)-pyridin-3-yl]-amide] | 1140 nM |
| CC(C)n1cc(C(=O)c2cncc(NC(=O)CN3CCc4cccnc4C3)c2)c2cncnc21 [Example 517, 2-(5,8-Dihydro-6H-[1,7]naphthyridin-7-yl)-N-[5-(7-isopropyl-7H-pyrrolo[2,3-d]pyrimidine-5-carbonyl)-pyridin-3-yl]-acetamide] | 4390 nM |
| CC(C)n1cc(C(=O)c2cncc(NC(=O)C(O)c3ccccc3)c2)c2cncnc21 (stereo not shown) [Example 518, 2-Hydroxy-N-[5-(7-isopropyl-7H-pyrrolo[2,3-d]pyrimidine-5-carbonyl)-pyridin-3-yl]-2-phenyl-acetamide] | 7.3 nM |
| CCOc1ncc(C(=O)c2cn(C(C)C)c3ncncc23)cc1NC(=O)Cn1nc(C(F)(F)F)cc1C [Example 519, N-[2-Ethoxy-5-(7-isopropyl-7H-pyrrolo[2,3-d]pyrimidine-5-carbonyl)-pyridin-3-yl]-2-(5-methyl-3-trifluoromethyl-pyrazol-1-yl)-acetamide] | 47.9 nM |
| CC(C)(C)n1cc(C(=O)c2cncc(NC(=O)Cc3ccc(C#N)cc3)c2)c2cnc(N)nc21 [Example 520, N-[5-(2-Amino-7-tert-butyl-7H-pyrrolo[2,3-d]pyrimidine-5-carbonyl)-pyridin-3-yl]-2-(4-cyano-phenyl)-acetamide] | 4.57 nM |
| CC(C)n1cc(C(=O)c2cncc(NC(=O)C(CO)c3ccc(Cl)cc3)c2)c2cncnc21 (stereo not shown) [Example 521, 2-(4-Chloro-phenyl)-3-hydroxy-N-[5-(7-isopropyl-7H-pyrrolo[2,3-d]pyrimidine-5-carbonyl)-pyridin-3-yl]-propionamide] | 92.7 nM |
| N#Cc1ccc(CC(=O)Nc2cncc(C(=O)c3cn(C4(CO)CC4)c4ncncc34)c2)cc1 [Example 522, 2-(4-Cyano-phenyl)-N-{5-[7-(1-hydroxymethyl-cyclopropyl)-7H-pyrrolo[2,3-d]pyrimidine-5-carbonyl]-pyridin-3-yl}-acetamide] | 43.7 nM |
| O=C(Cc1ccc(Cl)cn1)Nc1cncc(C(=O)c2cn(C3(CO)CC3)c3ncncc23)c1 [Example 523, 2-(5-Chloro-pyridin-2-yl)-N-{5-[7-(1-hydroxymethyl-cyclopropyl)-7H-pyrrolo[2,3-d]pyrimidine-5-carbonyl]-pyridin-3-yl}-acetamide] | 11.4 nM |
| O=C(Cc1ccc(C(F)(F)F)cc1)Nc1cncc(C(=O)c2cn(C3(CO)CC3)c3ncncc23)c1 [Example 524, N-{5-[7-(1-Hydroxymethyl-cyclopropyl)-7H-pyrrolo[2,3-d]pyrimidine-5-carbonyl]-pyridin-3-yl}-2-(4-trifluoromethyl-phenyl)-acetamide] | 4.53 nM |
| O=C(Cn1ccc(C(F)(F)F)n1)Nc1cncc(C(=O)c2cn(C3(CO)CC3)c3ncncc23)c1 [Example 525, N-{5-[7-(1-Hydroxymethyl-cyclopropyl)-7H-pyrrolo[2,3-d]pyrimidine-5-carbonyl]-pyridin-3-yl}-2-(3-trifluoromethyl-pyrazol-1-yl)-acetamide] | 9.48 nM |
| CC(C)n1cc(C(=O)c2cncc(NC(=O)Nc3cc(C4CC4)nn3-c3cnn(C)c3)c2)c2cncnc21 [Example 526, 1-(3-Cyclopropyl-1′-methyl-1′H-[1,4′]bipyrazolyl-5-yl)-3-[5-(7-isopropyl-7H-pyrrolo[2,3-d]pyrimidine-5-carbonyl)-pyridin-3-yl]-urea] | 1.51 nM |
| CC(C)n1cc(C(=O)c2cncc(NC(=O)Nc3cc(C(C)(C)C)nn3-c3cnn(C)c3)c2)c2cncnc21 [Example 527, 1-(3-tert-Butyl-1′-methyl-1′H-[1,4′]bipyrazolyl-5-yl)-3-[5-(7-isopropyl-7H-pyrrolo[2,3-d]pyrimidine-5-carbonyl)-pyridin-3-yl]-urea] | 4.64 nM |
| CC(C)(C)n1cc(C(=O)c2cncc(NC(=O)Cc3nc4ccccc4[nH]3)c2)c2cnc(N)nc21 [Example 528, N-[5-(2-Amino-7-tert-butyl-7H-pyrrolo[2,3-d]pyrimidine-5-carbonyl)-pyridin-3-yl]-2-(1H-benzoimidazol-2-yl)-acetamide] | 2.25 nM |
| CC(C)(C)n1cc(C(=O)c2cncc(NC(=O)Cc3ccc(Br)cn3)c2)c2cnc(N)nc21 [Example 529, N-[5-(2-Amino-7-tert-butyl-7H-pyrrolo[2,3-d]pyrimidine-5-carbonyl)-pyridin-3-yl]-2-(5-bromo-pyridin-2-yl)-acetamide] | 3.93 nM |
| CC(C)(C)n1cc(C(=O)c2cncc(NC(=O)Cc3ccc(C#N)cn3)c2)c2cnc(N)nc21 [Example 530, N-[5-(2-Amino-7-tert-butyl-7H-pyrrolo[2,3-d]pyrimidine-5-carbonyl)-pyridin-3-yl]-2-(5-cyano-pyridin-2-yl)-acetamide] | 5.9 nM |
| C[C@@H](CO)n1cc(C(=O)c2cncc(NC(=O)Cc3ccc(OC(F)F)cc3)c2)c2cncnc21 [Example 531, 2-(4-Difluoromethoxy-phenyl)-N-{5-[7-((S)-2-hydroxy-1-methyl-ethyl)-7H-pyrrolo[2,3-d]pyrimidine-5-carbonyl]-pyridin-3-yl}-acetamide] | 52.4 nM |
| C[C@@H](CO)n1cc(C(=O)c2cncc(NC(=O)Cn3cc4ccccc4n3)c2)c2cncnc21 [Example 532, N-{5-[7-((S)-2-Hydroxy-1-methyl-ethyl)-7H-pyrrolo[2,3-d]pyrimidine-5-carbonyl]-pyridin-3-yl}-2-indazol-2-yl-acetamide] | 11.1 nM |
| C[C@@H](CO)n1cc(C(=O)c2cncc(NC(=O)Cc3nc4ccccc4[nH]3)c2)c2cncnc21 [Example 533, 2-(1H-Benzoimidazol-2-yl)-N-{5-[7-((S)-2-hydroxy-1-methyl-ethyl)-7H-pyrrolo[2,3-d]pyrimidine-5-carbonyl]-pyridin-3-yl}-acetamide] | 31.3 nM |
| C[C@@H](CO)n1cc(C(=O)c2cncc(NC(=O)Cc3ccc(OC(F)(F)F)cc3)c2)c2cncnc21 [Example 534, N-{5-[7-((S)-2-Hydroxy-1-methyl-ethyl)-7H-pyrrolo[2,3-d]pyrimidine-5-carbonyl]-pyridin-3-yl}-2-(4-trifluoromethoxy-phenyl)-acetamide] | 20.3 nM |
| C[C@@H](CO)n1cc(C(=O)c2cncc(NC(=O)Cc3ccc(F)c(F)c3)c2)c2cncnc21 [Example 535, 2-(3,4-Difluoro-phenyl)-N-{5-[7-((S)-2-hydroxy-1-methyl-ethyl)-7H-pyrrolo[2,3-d]pyrimidine-5-carbonyl]-pyridin-3-yl}-acetamide] | 51.2 nM |
